From patent US20140057915A1, “KINASE INHIBITORS” (TOPIVERT PHARMA LIMITED, priority 2012, published 2014) come the findings set out here.

What is called pIC50 is −log10 of the IC50, conventionally taken in molar units.

pEC50, pIC50: −log10 of the molar value.

The target of one data set is cSrc (Homo sapiens, UniProt P12931). Put plainly: c-Src enzyme inhibition (FRET). Type of data set: biochemical. The following applies: Table 4a1. Here is the method:
(§1) The enzyme inhibitory activities of compounds disclosed herein are determined by FRET using synthetic peptides labelled with both donor and acceptor fluorophores (Z-LYTE, Invitrogen Ltd., Paisley, UK).
(§2) The relevant enzyme (3000 ng/mL or 2000 ng/mL respectively, 2.5 μL) is incubated with the test compound (either 4 μg/mL, 0.4 μg/mL, 0.04 μg/mL, or 0.004 μg/mL, 2.5 μL each) for 2 hr at RT. The FRET peptides (8 μM, 2.5 μL), and appropriate ATP solutions (2.5 μL, 800 μM for c-Src, and 60 μM ATP for Syk) are then added to the enzymes/compound mixtures and incubated for 1 hr. Development reagent (protease, 5 μL) is added for 1 hr prior to detection in a fluorescence microplate reader (Varioskan® Flash, ThermoFisher Scientific).
(§3) In all cases, the site-specific protease cleaves non-phosphorylated peptide only and eliminates the FRET signal. Phosphorylation levels of each reaction are calculated using the ratio of coumarin emission (donor) over fluorescein emission (acceptor), for which high ratios indicate high phosphorylation and low ratios indicate low phosphorylation levels.

For a further data set, the target named is Syk (Homo sapiens, UniProt P43405). Put plainly: Syk enzyme inhibition (FRET). In kind it is biochemical. Conditions: Table 4a1. Here is the method: as §1, §2, §3
In a further data set the target is GSK3α (Homo sapiens, UniProt P49840). Put plainly: GSK 3α enzyme inhibition (FRET), Method 1. Type of data set: biochemical. The following applies: Table 4a1. Here is the method: as §1
The following two assay variants are used for determination of GSK 3a inhibition.
The inhibitory activities of compounds of the invention against the GSK 3a enzyme isoform (Invitrogen), are evaluated by determining the level of activation/phosphorylation of the target peptide. The GSK3-α protein (500 ng/mL, 2.5 μL) is mixed with the test compound (2.5 μL at either 4 μg/mL, 0.4 μg/mL, 0.04 μg/mL, or 0.004 μg/mL) for 2 hr at RT. The FRET peptide (8 μM, 2.5 μL), which is a phosphorylation target for GSK3α, and ATP (40 μM, 2.5 μL) are then added to the enzyme/compound mixture and the resulting mixture incubated for 1 hr. Development reagent (protease, 5 μL) is added for 1 hr prior to detection in a fluorescence microplate reader (Varioskan® Flash, ThermoFisher Scientific).
as §3

The subject of data set [1] is TNFα release, d-U937 cells. Put plainly: LPS-induced TNFα release in d-U937 cells. Type of data set: cell-based. Conditions: Homo sapiens, dU937; relative to 10 μg/mL BIRB796; Table 4c1; read-out: LPS Induced Release of Cytokine in d-U937 Cells, TNFα REC50. Here is the method:
(§4) (a) LPS-Induced TNFα/IL-8 Release in d-U937Cells
U937 cells, a human monocytic cell line, are differentiated into macrophage-type cells by incubation with PMA (100 ng/mL) for 48 to 72 hr. Cells are pre-incubated with final concentrations of test compound for 2 hr and are then stimulated with LPS (0.1 μg/mL; from E. Coli: 0111:B4, Sigma) for 4 hr. The supernatant is collected for determination of TNFα and IL-8 concentrations by sandwich ELISA (Duo-set, R&D systems). […] The relative 50% effective concentration (REC50) is determined from the resultant concentration-response curve. The inhibition of IL-8 production is calculated at each concentration of test compound by comparison with vehicle control.

The test system of data set [2] is IL-8 release, d-U937 cells. Put plainly: LPS-induced IL-8 release in d-U937 cells. The following applies: Homo sapiens, dU937; Table 4c1; read-out: LPS Induced Release of Cytokine in d-U937 Cells, IL-8 IC50. In kind it is cell-based. Here is the method: as §4
U937 cells, a human monocytic cell line, are differentiated into macrophage-type cells by incubation with PMA (100 ng/mL) for 48 to 72 hr. Cells are pre-incubated with final concentrations of test compound for 2 hr and are then stimulated with LPS (0.1 μg/mL; from E. Coli: 0111:B4, Sigma) for 4 hr. […] The relative 50% effective concentration (REC50) is determined from the resultant concentration-response curve.

In data set [3] the test system is ICAM-1 expression, BEAS2B cells. Put plainly: Poly I:C-induced ICAM-1 expression in BEAS2B cells. In kind it is cell-based. The following applies: Homo sapiens, BEAS-2B; read-out: Poly IC induced ICAM1 in BEAS2B, IC50. How it is done:
(f) Poly I:C-Induced ICAM-1 Expression in BEAS2B Cells
Poly I:C is used in these studies as a simple, RNA virus mimic. Poly I:C-Oligofectamine mixture (1 μg/mL Poly I:C, ±2% Oligofectamine, 25 μL; Invivogen Ltd., San Diego, Calif., and Invitrogen, Carlsbad, Calif., respectively) is transfected into BEAS2B cells (human bronchial epithelial cells, ATCC). Cells are pre-incubated with final concentrations of test compounds for 2 hr and the level of ICAM1 expression on the cell surface is determined by cell-based ELISA. At a time point 18 hr after poly I:C transfection, cells are fixed with 4% formaldehyde in PBS (100 μL) and then endogenous peroxidase is quenched by the addition of washing buffer (100 μL, 0.05% Tween in PBS: PBS-Tween) containing 0.1% sodium azide and 1% hydrogen peroxide. Cells are washed with wash-buffer (3×200 μL). and after blocking the wells with 5% milk in PBS-Tween (100 μL) for 1 hr, the cells are incubated with anti-human ICAM-1 antibody (50 μL; Cell Signalling Technology, Danvers, Mass.) in 1% BSA PBS overnight at 4° C.
The cells are washed with PBS-Tween (3×200 μL) and incubated with the secondary antibody (100 μL; HRP-conjugated anti-rabbit IgG, Dako Ltd., Glostrup, Denmark). […] The ICAM-1 signal is detected by reading the absorbance at 450 nm against a reference wavelength of 655 nm using a spectrophotometer. The cells are then washed with PBS-Tween (3×200 μL) and total cell numbers in each well are determined by reading absorbance at 595 nm after Crystal Violet staining (50 μL of a 2% solution in PBS) and elution by 1% SDS solution (100 μL) in distilled water. The measured OD 450-655 readings are corrected for cell number by dividing with the OD595 reading in each well. The inhibition of ICAM-1 expression is calculated at each concentration of test compound by comparison with vehicle control.

Another data set has as its system d-U937 cells. Put plainly: Cell viability: MTT assay. Conditions: 1 μg/mL. In kind it is cell-based, human. How it is done:
(l) The Effect of Test Compounds on Cell Viability: MTT Assay
Differentiated U937 cells are pre-incubated with each test compound (final concentration 1 μg/mL or 10 μg/mL in 200 μL media indicated below) under two protocols: the first for 4 hr in 5% FCS RPMI1640 media and the second in 10% FCS RPMI1640 media for 24 h. The supernatant is replaced with new media (200 μL) and MTT stock solution (10 μL, 5 mg/mL) is added to each well. After incubation for 1 hr the media are removed, DMSO (200 μL) is added to each well and the plates are shaken lightly for 1 hr prior to reading the absorbance at 550 nm. The percentage loss of cell viability is calculated for each well relative to vehicle (0.5% DMSO) treatment. Consequently an apparent increase in cell viability for drug treatment relative to vehicle is tabulated as a negative percentage.

Chain of GSK3α (P49840 whole entry): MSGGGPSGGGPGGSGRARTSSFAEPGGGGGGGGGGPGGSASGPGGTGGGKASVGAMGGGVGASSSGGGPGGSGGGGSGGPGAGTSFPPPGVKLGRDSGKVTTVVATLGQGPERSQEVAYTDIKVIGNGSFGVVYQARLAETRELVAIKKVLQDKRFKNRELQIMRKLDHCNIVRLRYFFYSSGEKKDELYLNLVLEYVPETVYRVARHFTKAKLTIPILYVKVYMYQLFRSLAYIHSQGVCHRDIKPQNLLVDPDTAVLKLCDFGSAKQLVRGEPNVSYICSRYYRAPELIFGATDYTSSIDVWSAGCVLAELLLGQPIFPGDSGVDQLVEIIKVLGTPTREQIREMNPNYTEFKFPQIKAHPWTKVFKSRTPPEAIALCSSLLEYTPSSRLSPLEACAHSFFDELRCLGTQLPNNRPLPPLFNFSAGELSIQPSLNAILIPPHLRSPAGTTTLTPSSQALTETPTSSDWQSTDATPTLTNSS
Chain of cSrc (P12931 whole entry): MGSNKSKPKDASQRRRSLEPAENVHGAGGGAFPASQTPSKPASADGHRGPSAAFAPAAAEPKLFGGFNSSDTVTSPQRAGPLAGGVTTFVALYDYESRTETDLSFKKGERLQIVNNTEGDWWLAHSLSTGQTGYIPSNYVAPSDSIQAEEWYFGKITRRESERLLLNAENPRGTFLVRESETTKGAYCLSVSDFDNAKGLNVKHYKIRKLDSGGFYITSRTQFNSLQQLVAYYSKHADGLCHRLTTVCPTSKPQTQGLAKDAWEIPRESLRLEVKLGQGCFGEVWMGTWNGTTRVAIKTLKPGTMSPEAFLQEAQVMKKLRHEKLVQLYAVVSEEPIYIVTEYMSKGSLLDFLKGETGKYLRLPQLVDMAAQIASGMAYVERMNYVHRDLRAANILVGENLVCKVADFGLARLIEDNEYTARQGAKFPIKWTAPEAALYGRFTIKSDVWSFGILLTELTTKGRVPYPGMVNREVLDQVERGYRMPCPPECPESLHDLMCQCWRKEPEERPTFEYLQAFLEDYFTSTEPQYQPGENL

`Cc1ccc(-n2nc(C(C)(C)C)cc2NC(=O)Nc2ccc(Oc3ccnc(Nc4cccc(C(=O)NCCN5CCOCC5)c4)n3)c3ccccc23)cc1` [Example 3, 3-((4-((4-(3-(3-(tert-Butyl)-1-(p-tolyl)-1H-pyrazol-5-yl)ureido)naphthalen-1-yl)oxy)pyrimidin-2-yl)amino)-N-(2-morpholinoethyl)benzamide]: the pIC50 on cSrc was 9.00; against Syk, 7.96; at GSK3α, 6.54; in data set [2], 8.80; in data set [3], 9.15. Further, the pEC50 in data set [1] is 9.22. In the data set with d-U937 cells, the “Cell viability at time point in d-U937 cells, 4 h” value was “−ve (−ve and +ve indicate that the value is below and above respectively, the no significant effect threshold, defined as 30% inhibition at 1 μg/mL at the time point indicated)”. The “Cell viability at time point in d-U937 cells, 24 h” value (from here on “Cell viability at time point … 24 h”) with d-U937 cells was “−ve (−ve and +ve indicate that the value is below and above respectively, the no significant effect threshold, defined as 30% inhibition at 1 μg/mL at the time point indicated)”.
Take `COc1cc(C(=O)NCCO)ccc1Nc1nccc(Oc2ccc(NC(=O)Nc3cc(C(C)(C)C)nn3-c3ccc(C)cc3)c3ccccc23)n1` [Example 4, 4-((4-((4-(3-(3-(tert-Butyl)-1-(p-tolyl)-1H-pyrazol-5-yl)ureido)naphthalen-1-yl)oxy)pyrimidin-2-yl)amino)-N-(2-hydroxyethyl)-3-methoxybenzamide]: the pIC50 on cSrc is 7.31; at Syk, 6.91; against GSK3α, under 4.84; in data set [2], 8.18; in data set [3], 8.34. The pEC50 in data set [1] was 9.15. The “Cell viability at time point in d-U937 cells, 4 h” value in the data set on d-U937 cells was “−ve (−ve and +ve indicate that the value is below and above respectively, the no significant effect threshold, defined as 30% inhibition at 1 μg/mL at the time point indicated)”. For the same compound, in the data set with d-U937 cells, the “Cell viability at time point … 24 h” value was “−ve (−ve and +ve indicate that the value is below and above respectively, the no significant effect threshold, defined as 30% inhibition at 1 μg/mL at the time point indicated)”.
Turning to `COc1ccc(-n2nc(C(C)C)cc2NC(=O)Nc2ccc(Oc3ccnc(Nc4cc(OC)cc(C(=O)NCCN(C)C)c4)n3)c3ccccc23)cc1` [Example 6], the pIC50 against cSrc is 8.70; at Syk it was 8.30; on GSK3α, 6.20; in data set [2], 8.72; in data set [3], 8.92. For the same compound, the pEC50 in data set [1] was 9.70. Further, the “Cell viability at time point in d-U937 cells, 4 h” value in the data set on d-U937 cells was “−ve (−ve and +ve indicate that the value is below and above respectively, the no significant effect threshold, defined as 30% inhibition at 1 μg/mL at the time point indicated)”. Besides, in the data set on d-U937 cells, the “Cell viability at time point … 24 h” value was “−ve (−ve and +ve indicate that the value is below and above respectively, the no significant effect threshold, defined as 30% inhibition at 1 μg/mL at the time point indicated)”.
For the compound `COc1cc(Nc2nccc(Oc3ccc(NC(=O)Nc4cc(C(C)C)nn4-c4ccc(OC)nc4)c4ccccc34)n2)cc(C(=O)NCCN2CCOCC2)c1` [Example 10, 3-((4-((4-(3-(3-Isopropyl-1-(6-methoxypyridin-3-yl)-1H-pyrazol-5-yl)ureido)naphthalen-1-yl)oxy)pyrimidin-2-yl)amino)-5-methoxy-N-(2-morpholinoethyl)benzamide], the negative-log IC50 (pIC50) at cSrc is 8.70; against Syk it was 8.40; against GSK3α, under 4.89; in data set [2] it was 8.74; in data set [3], 8.14. In data set [1], the pEC50 is 8.89. The “Cell viability at time point in d-U937 cells, 4 h” value with d-U937 cells is “−ve (−ve and +ve indicate that the value is below and above respectively, the no significant effect threshold, defined as 30% inhibition at 1 μg/mL at the time point indicated)”. For the same compound, the “Cell viability at time point … 24 h” value with d-U937 cells was “−ve (−ve and +ve indicate that the value is below and above respectively, the no significant effect threshold, defined as 30% inhibition at 1 μg/mL at the time point indicated)”.
As for `COc1ccc(-n2nc(C(C)C)cc2NC(=O)Nc2ccc(Oc3ccnc(Nc4cc(C)cc(C(=O)NCCN5CCOCC5)c4)n3)c3ccccc23)cc1` [Example 45, 3-((4-((4-(3-(3-isopropyl-1-(4-methoxyphenyl)-1H-pyrazol-5-yl)ureido)naphthalen-1-yl)oxy)pyrimidin-2-yl)amino)-5-methyl-N-(2-morpholinoethyl)benzamide], the negative-log IC50 (pIC50) against Syk was under 5.88; at GSK3α it was 5.79; in data set [2], 9.15; in data set [3], 6.87. Moreover, in data set [1], the pEC50 is 8.80. Also, the “Cell viability at time point in d-U937 cells, 4 h” value in the data set on d-U937 cells is “−ve (−ve and +ve indicate that the value is below and above respectively, the no significant effect threshold, defined as 30% inhibition at 1 μg/mL at the time point indicated)”. The “Cell viability at time point … 24 h” value in the data set on d-U937 cells is “−ve (−ve and +ve indicate that the value is below and above respectively, the no significant effect threshold, defined as 30% inhibition at 1 μg/mL at the time point indicated)”.
